In PubChem BioAssay AID1963420 (Molecular Pharmacology Branch, DTP, NCI, 2024):

Test system: 494315-158-R-J1-PDC complex spheroid growth, percent test/control
Assay: Anticancer human tumor 494315-158-R-J1-PDC patient-derived soft tissue sarcoma cell line growth inhibition [Asc]
Details: for IC50: curve of first compound; for viability, T/C: stronger effect = lower value; active = viability on the fitted dose curve at most 10% of control; inactive = the rest
Summary of the method: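 Tumor cells were grown as complex spheroids with human endothelial cells (HUVEC) and human mesenchymal stem cells as stroma. Agents were tested alone and in combination, in half-log steps down from the clinical Cmax, or from 10 microM where Cmax was unknown.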

[1] = second compound 0.1 µM, first compound 0.0316 µM
[2] = second compound 0.1 µM, first compound 0.1 µM
[3] = second compound 0.1 µM, first compound 0.316 µM
[4] = second compound 0.1 µM, first compound 1 µM
[5] = second compound 0.316 µM, first compound 0.0316 µM
[6] = second compound 0.316 µM, first compound 0.1 µM
[7] = second compound 0.316 µM, first compound 0.316 µM
[8] = second compound 0.316 µM, first compound 1 µM
[9] = second compound 1 µM, first compound 0.0316 µM
[10] = second compound 1 µM, first compound 0.1 µM
[11] = second compound 1 µM, first compound 0.316 µM
[12] = second compound 1 µM, first compound 1 µM
[13] = second compound 3.16 µM, first compound 0.0316 µM
[14] = second compound 3.16 µM, first compound 0.1 µM
[15] = second compound 3.16 µM, first compound 0.316 µM
[16] = second compound 3.16 µM, first compound 1 µM
[17] = second compound 10 µM, first compound 0.0316 µM
[18] = second compound 10 µM, first compound 0.1 µM
[19] = second compound 10 µM, first compound 0.316 µM
[20] = second compound 10 µM, first compound 1 µM
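Note: compound exposure lasted seven days after spheroids formed for three days.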

C#Cc1c(F)ccc2cc(O)cc(-c3ncc4c(N5CC6CCC(C5)N6)nc(OCC56CCCN5CC(F)C6)nc4c3F)c12 (stereo not given) + Cc1c(S(C)(=O)=O)c(-c2cc(F)cc(N3CCN(c4ccc(NS(=O)(=O)c5ccc(NC(CCN6CCC(C(=O)OCCCP(=O)(O)O)CC6)CSc6ccccc6)c(S(=O)(=O)C(F)(F)F)c5)cc4)CC3)c2)c(-c2ccc(Cl)cc2)n1C(C)C
4040 nM: IC50 (second compound 3.16 µM)
> 10000 nM: IC50 (second compound 0.1 µM) | IC50 (second compound 0.316 µM) | IC50 (second compound 1 µM) | IC50 (second compound 10 µM)
inactive: viability, T/C [1] 82.8% | viability, T/C [2] 89.9% | viability, T/C [3] 77.2% | viability, T/C [4] 88.6% | viability, T/C (second compound 0.1 µM, first compound 3.16 µM) 80.4% | viability, T/C (second compound 0.1 µM, first compound 10 µM) 59.8% | viability, T/C [5] 84.9% | viability, T/C [6] 74.8% | viability, T/C [7] 74.8% | viability, T/C [8] 72.1% | viability, T/C (second compound 0.316 µM, first compound 3.16 µM) 71.9% | viability, T/C (second compound 0.316 µM, first compound 10 µM) 50.7% | viability, T/C [9] 61.6% | viability, T/C [10] 78.1% | viability, T/C [11] 72.8% | viability, T/C [12] 69.2% | viability, T/C (second compound 1 µM, first compound 3.16 µM) 71.1% | viability, T/C (second compound 1 µM, first compound 10 µM) 51.4% | viability, T/C [13] 51.9% | viability, T/C [14] 57.5% | viability, T/C [15] 65.7% | viability, T/C [16] 58.9% | viability, T/C (second compound 3.16 µM, first compound 3.16 µM) 51.5% | viability, T/C (second compound 3.16 µM, first compound 10 µM) 37.6% | viability, T/C [17] 74.8% | viability, T/C [18] 78.8% | viability, T/C [19] 88.2% | viability, T/C [20] 81.2% | viability, T/C (second compound 10 µM, first compound 3.16 µM) 81.3% | viability, T/C (second compound 10 µM, first compound 10 µM) 55.5%

CNC(C)C(=O)NC1CN(S(=O)(=O)c2cccc(S(=O)(=O)N3CCC4CCC(C(=O)NC(c5ccccc5)c5ccccc5)N4C(=O)C(NC(=O)C(C)NC)C3)c2)CCC2CCC(C(=O)NC(c3ccccc3)c3ccccc3)N2C1=O (stereo not given) + Cc1c(S(C)(=O)=O)c(-c2cc(F)cc(N3CCN(c4ccc(NS(=O)(=O)c5ccc(NC(CCN6CCC(C(=O)OCCCP(=O)(O)O)CC6)CSc6ccccc6)c(S(=O)(=O)C(F)(F)F)c5)cc4)CC3)c2)c(-c2ccc(Cl)cc2)n1C(C)C
18.8 nM: IC50 (second compound 0.1 µM)
inactive: viability, T/C (second compound 0.1 µM, first compound 0.00316 µM) 66.2% | viability, T/C (second compound 0.1 µM, first compound 0.01 µM) 57.6% | viability, T/C [1] 42.9% | viability, T/C [2] 36.8% | viability, T/C [3] 29.5% | viability, T/C [4] 26.9% | viability, T/C (second compound 0.316 µM, first compound 0.00316 µM) 46.4% | viability, T/C (second compound 0.316 µM, first compound 0.01 µM) 47.5% | viability, T/C [5] 39.1% | viability, T/C [6] 39.3% | viability, T/C [7] 26% | viability, T/C [8] 30% | viability, T/C (second compound 1 µM, first compound 0.00316 µM) 68.2% | viability, T/C (second compound 1 µM, first compound 0.01 µM) 43.2% | viability, T/C [9] 42.8% | viability, T/C [10] 34.7% | viability, T/C [11] 26.4% | viability, T/C [12] 23.9% | viability, T/C (second compound 3.16 µM, first compound 0.00316 µM) 49% | viability, T/C (second compound 3.16 µM, first compound 0.01 µM) 39.7% | viability, T/C [13] 32.6% | viability, T/C [14] 21.8% | viability, T/C [15] 36.7% | viability, T/C [16] 19.8% | viability, T/C (second compound 10 µM, first compound 0.00316 µM) 60.3% | viability, T/C (second compound 10 µM, first compound 0.01 µM) 60.5% | viability, T/C [17] 44.5% | viability, T/C [18] 36.4% | viability, T/C [19] 29.3% | viability, T/C [20] 29.4%
22.2 nM: IC50 (second compound 10 µM)
9.57 nM: IC50 (second compound 1 µM)
< 3.16 nM: IC50 (second compound 0.316 µM) | IC50 (second compound 3.16 µM)

Cc1nc(N2CCC3(CC2)COC(C)C3N)c(CO)nc1Sc1ccnc(N)c1Cl (stereo not given) + Cc1c(S(C)(=O)=O)c(-c2cc(F)cc(N3CCN(c4ccc(NS(=O)(=O)c5ccc(NC(CCN6CCC(C(=O)OCCCP(=O)(O)O)CC6)CSc6ccccc6)c(S(=O)(=O)C(F)(F)F)c5)cc4)CC3)c2)c(-c2ccc(Cl)cc2)n1C(C)C
558 nM: IC50 (second compound 0.1 µM)
260 nM: IC50 (second compound 0.316 µM)
194 nM: IC50 (second compound 10 µM)
< 9.49 nM: IC50 (second compound 3.16 µM)
inactive: viability, T/C (second compound 0.1 µM, first compound 0.00949 µM) 71.1% | viability, T/C (second compound 0.1 µM, first compound 0.03 µM) 80.7% | viability, T/C (second compound 0.1 µM, first compound 0.0949 µM) 69.1% | viability, T/C (second compound 0.1 µM, first compound 0.3 µM) 61.6% | viability, T/C (second compound 0.1 µM, first compound 0.949 µM) 40.5% | viability, T/C (second compound 0.1 µM, first compound 3 µM) 23.5% | viability, T/C (second compound 0.316 µM, first compound 0.00949 µM) 68.3% | viability, T/C (second compound 0.316 µM, first compound 0.03 µM) 70% | viability, T/C (second compound 0.316 µM, first compound 0.0949 µM) 51.8% | viability, T/C (second compound 0.316 µM, first compound 0.3 µM) 55.2% | viability, T/C (second compound 0.316 µM, first compound 0.949 µM) 30.5% | viability, T/C (second compound 0.316 µM, first compound 3 µM) 17.1% | viability, T/C (second compound 1 µM, first compound 0.00949 µM) 71.4% | viability, T/C (second compound 1 µM, first compound 0.03 µM) 71% | viability, T/C (second compound 1 µM, first compound 0.0949 µM) 49.6% | viability, T/C (second compound 1 µM, first compound 0.3 µM) 34.6% | viability, T/C (second compound 1 µM, first compound 0.949 µM) 20.7% | viability, T/C (second compound 1 µM, first compound 3 µM) 21% | viability, T/C (second compound 3.16 µM, first compound 0.00949 µM) 48.8% | viability, T/C (second compound 3.16 µM, first compound 0.03 µM) 41.2% | viability, T/C (second compound 3.16 µM, first compound 0.0949 µM) 43.6% | viability, T/C (second compound 3.16 µM, first compound 0.3 µM) 26.4% | viability, T/C (second compound 3.16 µM, first compound 0.949 µM) 22.6% | viability, T/C (second compound 3.16 µM, first compound 3 µM) 10.3% | viability, T/C (second compound 10 µM, first compound 0.00949 µM) 76.8% | viability, T/C (second compound 10 µM, first compound 0.03 µM) 69.6% | viability, T/C (second compound 10 µM, first compound 0.0949 µM) 67.6% | viability, T/C (second compound 10 µM, first compound 0.3 µM) 38.5% | viability, T/C (second compound 10 µM, first compound 0.949 µM) 22.1% | viability, T/C (second compound 10 µM, first compound 3 µM) 8.76%
107 nM: IC50 (second compound 1 µM)
